Key:
[1] = tested on: Complete Freund's Adjuvant (CFA)-induced thermal hyperalgesia; experiment: CFA inflammation model, thermal response (paw withdrawal latency to radiant heat), set A; format: in vivo, Sprague-Dawley rats; settings: for thermal antihyperalgesia: topical cream to hindpaw, day 3 at 2 and 4 hours after treatment
Experimental: Baselines were established for all rats for thermal response latency before intraplantar (i.pl.) injection of the inflammatory agent. Three days after injection of the inflammatory agent (CFA), the degree of thermal hypersensitivity was determined followed by topical application to anesthetized rats of i) the drug-free cream, creams containing ii) ibuprofen, iii) gabapentin, and each the combination of ibuprofen with gabapentin using a topical cream optimized for deep skin penetration/vascular access. Six experimental groups were used in total Application of ibuprofen cream served both as an active pharmacological agent and positive control throughout these studies. The drug formulation and control cream (negative control) was applied to the glabrous side of the rat hindpaw using a previously published method. Nozaki-Taguchi, N. and T. L. Yaksh., Characterization of the Antihyperalgesic Action of a Novel Peripheral Mu-opioid Receptor Agonist-loperamide, Anesthesiology, 90: 225-234, 1999; Iadarola, M. J., et al., Increased Spinal Cord Dynorphin mRNA During Peripheral Inflammation, NIDA Re.s Monogr., 75: 406-409, 1986.
Rats were isoflurane-anesthetized (1-2%) and the cream (0.2 g) applied gently with a finger for 1 minute to the glabrous skin of the hindpaw. For low drug concentrations, 5% formulations of all drugs were. For high drug concentrations, 10% cream formulations were employed. […] Upon recovery from anesthesia (within 10 minutes of cessation of anesthetic), rats were moved to plexiglass enclosures for sensory assessment. Efficacy was initially tested at 1, 2, 4, 8, 24 hours after cream treatment; depending on initial results. Time was revised to track the onset and offset of drug effects.
(§1) Two parallel studies (two arms) were done, each with four treatment groups, with four Sprague-Dawley rats per group. The rats used were male rats weighing 175-200 grams. Half of the rats were given injections of 1:1 complete Freund's adjuvant (CFA) on day 0 to produce long-term inflammation of the left hindpaw; the other half of the rats were given spared nerve injury (SNI, transection of 2 of 3 branches of the sciatic nerve) in the lower thigh on day 0.
(§2) Before treatments, rats' baseline response thermal latencies (on a glass surface suspended above a moveable heat lamp) or mechanical thresholds (on a wire mesh surface suspended above a moveable electronic von Frey stimulator) were determined after 15 min acclimatization on the thermal or mechanical testing apparatuses.
(§3) The CFA model of persistent inflammatory hyperalgesia in one hindpaw of the rats was utilized (see Gold and Gebhart, Nature Medicine 16: 1248-1257, 2010). This model produces edema, reddening, inflammation, and behavioral hypersensitivity. Experimental groups of rats were anesthetized with isoflurane before receiving an intraplantar injection into the left hindpaw of 100 μl of CFA (1:1 with sterile PBS) using a sterile 0.5 ml syringe. The CFA model produced inflammatory signs accompanied by thermal and mechanical hyperalgesia in the injected hindpaw within six to eight hours. The hypersensitivity peaks at 3 days, which was the first testing day of the analgesic topical formulations in the CFA model.
One of four treatments was applied to each rat on days 3, 7 and 11 after CFA injection or on days 7, 14 and 21 after SNI application. […] For the formulations with ibuprofen and/or gabapentin, the formulation also contained vasodilators arginine and methyl nicotinate, chelator EDTA, solvents dimethyl acetamide and water, osmolyte potassium hydroxide, lipids soy bean oil and olive oil, and various other excipients including eucalyptol, gelcarin GP-379NF, glyceryl monostearate, menthol, methyl paraben, propylparaben, phenoxyethanol, permulen TR-1, phospolipon 90H, ST elastomer, urea, and Vitamin E TPGS. […]

[2] = tested on: CFA inflammation-induced mechanical hyperalgesia; experiment: CFA inflammation model, mechanical response (von Frey stimulation), set A; format: in vivo, Sprague-Dawley rats; settings: CFA rats
Source text: as §1, §2, §3
One of four treatments was applied to each rat on days 3, 7 and 11 after CFA injection or on days 7, 14 and 21 after SNI application. […] For the formulations with ibuprofen and/or gabapentin, the formulation also contained vasodilators arginine and methyl nicotinate, chelator EDTA, solvents dimethyl acetamide and water, osmolyte potassium hydroxide, lipids soy bean oil and olive oil, and various other excipients including eucalyptol, gelcarin GP-379NF, glyceryl monostearate, menthol, methyl paraben, propylparaben, phenoxyethanol, permulen TR-1, phospolipon 90H, ST elastomer, urea, and Vitamin E TPGS.
For application of the topical formulation, the rats were anesthetized with isoflurane for 30 min. while the creams were applied to both hindpaws to minimize oral absorption as described in Nozaki-Taguchi et al., Anesthesiology 90: 225-234, 1999; Iadarola et al., NIDA Res. Monogr. 75: 406-409, 1986. […]
In these studies, the sensory responsiveness to thermal (radiant heat) stimuli was assessed in terms of time to elicit paw withdrawal. […] Sensory responses to mechanical stimulus (von Frey stimulation) were also assessed prior to CFA injection and following several days after inflammation (FIGS. 2A-2C) or nerve injury (FIGS. 4A-5C). […]

[3] = CFA rats, days 7 and 12 post-CFA
[4] = day 11 at 2 hours after treatment
[5] = day 12 at 2 hours after treatment

SMILES | thermal antihyperalgesia (possible efficacy) on later days [1, 3] | thermal antihyperalgesia ([1]; CFA rats) | suppression of thermal hyperalgesia ([1]; CFA rats, transdermal delivery, drug alone) | efficacy against mechanical hyperalgesia, agent given alone [2, 4] | efficacy against mechanical hyperalgesia, agent given alone [2, 5] | reversal of hyperalgesia ([1]; CFA rats, cream applied for 20 minutes, 1 hour after treatment on day 3 post-CFA) | duration of beneficial impact of the drug ([1]; CFA rats, day 3 post-CFA) [h] | hyperalgesia after 24 hours ([1]; CFA rats, day 3 post-CFA, 24 hours after treatment) | statistical significance of the effect ([1]; CFA rats, day 3 post-CFA, vs vehicle (ANOVA, Dunnett)) | thermal antihyperalgesia (possible efficacy) on later days ([1]; CFA rats, days 7 and 11 post-CFA) | reversal of thermal hypersensitivity ([1]; FIGS. 1A-1C, at some time points during the testing period)
NCC1(CC(=O)O)CCCCC1 [gabapentin] | not repeated | borderline significant | failed to suppress | efficacious | efficacious | – | – | – | – | – | –
CC(C)Cc1ccc(C(C)C(=O)O)cc1 (stereo not drawn) [ibuprofen, 2-[4-(2-methylpropyl)phenyl]propanoic acid] | not repeated | borderline significant | – | efficacious | efficacious | completely reversed | 4 | completely returned to the baseline level | statistically significant | not repeated | significant reversal

Reference: patent US10624867B2, “Transdermally-delivered combination drug therapy for pain” (BioChemics, Inc., priority 2017, dated 2020)
